The text below walks through data of publication PMC6222871, “Suppression of Hepatitis C Virus Genome Replication and Particle Production by a Novel Diacylglycerol Acyltransferases Inhibitor” (Molecules : A Journal of Synthetic Chemistry and Natural …, 2018).

The structures appear in SMILES notation. Where two headings read alike, the source gives them in different places.

Data set [1] in a line: MTT-based cell viability assay (EZ-CYTOX). To be noted: human. On the procedure:
(§1) To order to study impacts of DGAT inhibitors on HCV genome replication independently of the particle production, we decided to examine effects of these twelve DGAT inhibitors on the levels of viral RNA genome and cell viability in parallel. […] Then, we treated them with an increasing concentration of each DGAT inhibitor. Then, luciferase and MTT-based cell viability assays were performed to determine EC50 and CC50 (cytotoxic concentration required to kill 50% of treated cells) values, respectively.
(§2) Cell viability was measured with EZ-CYTOX (10% tetrazolium salt; Dogen, Gyeonggi-do, Korea) as described previously. Anti-HCV replication analysis using a luciferase assay was conducted as previously described.

In data set [2] the test system is luciferase-linked genotype 2a HCV RNAs. Description: microbe, parasite or virus in culture. Conditions: read-out: EC50 (HCV replication). Format: cell-based, hepatitis C virus. On the procedure: as §1, §2
The next data set concerns recombinant DGAT-2. More on the design: method as in PMID 23242135. To be noted: cited from earlier work.
The test system of the next data set is recombinant DGAT-1. More on the design: method as in PMID 23242135. To be noted: recombinant DGAT-1, [14C] oleoyl-CoA as acyl-donor; cited from earlier work.
The subject of data set [3] is DGATs (rat liver microsome). More on the design: method as in PMID 23141914, PMID 23242135. To be noted: cited from earlier work.
For data set [4], the system named is HCV genotype 2a (Huh7.5-J6/JFH1). Description: HCV particle production: infectivity of supernatant on naive Huh7.5 cells by real-time RT-PCR. Format: cell-based, hepatitis C virus. To be noted: 10 μM.
Protocol: A922500, a commercially available DGAT-1-specific inhibitor was used as a positive control [10]. […] Therefore, we decided to examine effects of these twelve DGAT inhibitors on HCV particle production as well as RNA genome replication in parallel. For this purpose, we transfected Huh7.5 cells with in vitro-transcribed genotype 2a HCV RNAs (Huh7.5-J6/JFH1) [16] and treated them with each DGAT inhibitor for 6 and 72 h at 10 μM. HCV genome replication as well as host GAPDH RNA levels was quantitated by a real-time RT-PCR analysis. For assessment of HCV particle production, we harvested and filtered the supernatant from Huh7.5-J6/JFH1 cells treated with DGAT inhibitors and incubated the supernatant with naïve huh7.5 cells for 72 h. Then, infectivity was measured by a real-time RT-PCR analysis.
Huh7.5-J6/JFH-1 cells were seeded into 6-well plates at a density of 3 × 10^5 cells per well with DMEM containing 10% FBS. […] Total RNAs were extracted from treated cells and virus-containing media were harvested at each time point. Naïve Huh7.5 cells were infected with these virus-containing media after concentration with centricons.
A further data set has as its system HepG2 cells. On the set-up: method as in PMID 23242135. Conditions: [14C] glycerol as substrate; cited from earlier work.
Data set [5] relates to HCV NS3 (Huh7.5-J6/JFH1, genotype 2a). Description: western blot of HCV NS3 protein in Huh7.5-J6/JFH1 cells. To be noted: positive control. How it is done:
Due to the tight coupling of viral genome replication to its protein expression, inhibition of viral RNA genome replication leads to a subsequent reduction of viral protein expression.
(A) Dose-dependent western blot analysis of Huh7.5-J6/JFH1 cells treated with increasing concentrations of 10j for 72 h by measuring protein expression levels of HCV NS3 relative to the β-actin. Daclatasvir, an NS5A inhibitor was used as a positive control. (B) Time-dependent western blot analysis of J6/JFH1 RNA-transfected Huh7.5 cells treated with 8 μM of 10j for increasing periods of time analyzed by measuring protein expression levels of HCV NS3 relative to the β-actin. (C,D) Same experiments were performed as in (A,B) to study effects of 10j on the expression levels of the NS5A protein of Huh7.5-Bart79I cells in a dose- as well as time-dependent manners.
Western blot analysis of Huh7.5-J6/JFH1 or Bart79I cells treated with 10j was conducted as previously described. Relative amounts of HNF4α proteins were quantified by using an HNF4α mouse monoclonal antibody (M04), clone 4E2 (Abnova) with the dilution of 1:1000.

Where [6] appears, read: Hepatitis C virus, Huh7.5, luciferase-linked genotype 2a HCV RNA in Huh7.5 cells.

In the case of `CC(C)NC(=O)c1cccc(NC(=O)/C=C/c2cn(C(=O)OC(C)(C)C)c3ccccc23)c1` [5a], in data set [1], the CC50 stood at 3.7 µM. Moreover, the concentration giving a half-maximal response (EC50) in data set [2] (setting [6]) came out at 1.9 µM. The IC50 with recombinant DGAT-2 was 6.9 µM; in the data set on recombinant DGAT-1 it was greater than 100 µM; in data set [3] it was 8.8 µM. Further, the “effect on HCV particle production” value is reported as “able to block HCV particle production” in data set [4] (6 h (Figure 1B)) and “suppress the viral particle production” in data set [4] (72 h (Figure 1D)).

Turning to `CC(C)(C)OC(=O)n1cc(/C=C/C(=O)Nc2cccc(C(=O)N3CCCC3)c2)c2ccccc21` [5c], the CC50 in data set [1] was greater than 10 µM. In data set [2] (setting [6]), the EC50 is greater than 10 µM. Further, the IC50 with recombinant DGAT-2 is 6.8 µM; with recombinant DGAT-1 it was 89.1 µM; in data set [3], 13.2 µM. Also, in data set [4] (72 h (Figure 1D)), the “effect on HCV particle production” value is “suppress the viral particle production”.

`CC(C)(C)OC(=O)n1cc(/C=C/C(=O)Nc2cccc(C(=O)NCc3ccco3)c2)c2ccccc21` [5h] had a CC50 in data set [1] of 5.1 µM. For the same compound, in data set [2] (setting [6]), the EC50 worked out at 2.1 µM. The IC50 was 6.9 µM in the data set on recombinant DGAT-2, greater than 100 µM in the data set with recombinant DGAT-1 and 2.5 µM in data set [3]. The “TG % (10 μM in HepG2), relative [14C] triglyceride percentage” value with HepG2 cells is on record as 33.2%. The figures for the “effect on HCV particle production” value in data set [4] (6 h (Figure 1B)) and in data set [4] (72 h (Figure 1D)) were “able to block HCV particle production” and “suppress the viral particle production”, respectively.

For `Cc1ccc(CNC(=O)c2cccc(NC(=O)/C=C/c3cn(C(=O)OC(C)(C)C)c4ccccc34)c2)o1` [5j], the CC50 in data set [1] was found to be 3.4 µM. Further, the EC50 in data set [2] (setting [6]) is 1.1 µM. Moreover, the values for the IC50 (with recombinant DGAT-2; with recombinant DGAT-1; in data set [3]) were 7.4 µM, greater than 100 µM and 9.4 µM, respectively. In addition, in data set [4] (72 h (Figure 1D)), the “effect on HCV particle production” value is “suppress the viral particle production”.

For `CC(C)CCn1cc(/C=C/C(=O)N(NC(=O)c2cccc(F)c2)C(C)C)c2ccccc21` [8h], in data set [1], the CC50 was greater than 10 µM. Moreover, the EC50 in data set [2] (setting [6]) was 6.7 µM. The IC50 in the data set on recombinant DGAT-2 was greater than 10 µM; in the data set on recombinant DGAT-1, 20.4 µM. Also, the “TG % (10 μM in HepG2), relative [14C] triglyceride percentage” value with HepG2 cells is 71.2%. Further, in data set [4] (72 h (Figure 1D)), the “effect on HCV particle production” value is reported as “suppress the viral particle production”.

Regarding `CC(C)CCn1cc(/C=C/C(=O)N(NC(=O)c2ccc(F)cc2)C(C)C)c2ccccc21` [8i], the CC50 in data set [1] was greater than 10 µM. The EC50 in data set [2] (setting [6]) came to 5.1 µM. For the same compound, the IC50 in the data set on recombinant DGAT-2 was greater than 10 µM; in the data set on recombinant DGAT-1 it was 2.1 µM. In addition, the “TG % (10 μM in HepG2), relative [14C] triglyceride percentage” value in the data set with HepG2 cells is 94.8%. For the same compound, the “effect on HCV particle production” value in data set [4] (72 h (Figure 1D)) is “suppress the viral particle production”.

`CC(C)=CCn1cc(/C=C/C(=O)N(NC(=O)c2cccc(F)c2)C(C)C)c2ccccc21` [8u]: the CC50 in data set [1] was greater than 10 µM. Also, the half-maximal effective concentration (EC50) in data set [2] (setting [6]) was greater than 10 µM. Further, the IC50 with recombinant DGAT-2 was greater than 10 µM; in the data set on recombinant DGAT-1, 1.5 µM. Besides, in the data set with HepG2 cells, the “TG % (10 μM in HepG2), relative [14C] triglyceride percentage” value was 55.7%. For the same compound, the “effect on HCV particle production” value in data set [4] (72 h (Figure 1D)) was “suppress the viral particle production”.

In data set [1], `O=C(c1ccc2nc(COc3ccc(C45CC6CC(CC(C6)C4)C5)cc3)[nH]c2c1)N1CCCCC1` [10e] registered a CC50 greater than 10 µM. Moreover, the EC50 in data set [2] (setting [6]) is greater than 10 µM. Further, in data set [3], the IC50 was 27.5 µM.

In turn, `O=C(Nc1ccccc1)c1ccc2nc(COc3ccc(C45CC6CC(CC(C6)C4)C5)cc3)[nH]c2c1` [10f] gave a CC50 in data set [1] greater than 10 µM. Besides, the EC50 in data set [2] (setting [6]) is greater than 10 µM. Moreover, the IC50 in data set [3] was greater than 50 µM.

Take `O=C(NCc1ccccc1)c1ccc2nc(COc3ccc(C45CC6CC(CC(C6)C4)C5)cc3)[nH]c2c1` [10h]: the CC50 in data set [1] was greater than 10 µM. In addition, the values for the EC50 in data set [2] (setting [6]) and in data set [2] (luciferase-linked genotype 2a HCV RNA in Huh7.5 cells) were less than 10 µM and 7.7 µM, respectively. In addition, the IC50 in data set [3] was greater than 50 µM.

`O=C(NCc1ccccn1)c1ccc2nc(COc3ccc(C45CC6CC(CC(C6)C4)C5)cc3)[nH]c2c1` [10i]: the midpoint of cytotoxicity in data set [1], the CC50, lay at 3.9 µM. Moreover, in data set [3], the IC50 is 20 µM.

For the compound `COC(=O)N[C@H](C(=O)N1CCC[C@H]1c1nc(-c2ccc(-c3ccc(-c4c[nH]c([C@@H]5CCCN5C(=O)[C@@H](NC(=O)OC)C(C)C)n4)cc3)cc2)c[nH]1)C(C)C` [Daclatasvir, reference compound], in data set [5], the “expression of viral proteins” value is given as “able to inhibit expression of viral proteins”.
